In US20080274121A1, “Inhibition of Angiogenesis by Mithramycin” (priority 2007, published 2008):

Assays:
BxPC3 cells = test: Viable cell count in vitro, BxPC3; type: cell-based, human; conditions: 100 μg/ml BVZ
Procedure: FIG. 14. Effects of treatment with BVZ and MIT on the growth of and gene expression in human pancreatic cancer cells in vitro. (A) BxPC3 and (B) PANC-1 cells were incubated for 1 to 5 days in a medium alone or a medium containing 100 μg/ml BVZ. The viable cells were counted every 24 hours. C, PANC-1 cells were incubated for 6 to 48 hours in a medium alone or a medium containing 100 μg/ml BVZ. Total protein lysates were harvested from the cell cultures, and the level of Sp1, EGFR, and VEGF protein expression was determined using Western blot analysis. Equal protein-sample loading was monitored by probing the same membrane filter with an anti-glyceraldehyde-3-phosphate dehydrogenase antibody (GAPDH). D and E, PANC-1 cells were treated with MIT at concentrations ranging from 0.1 to 1.2 μM for 24 and 48 hours. (D) Cytotoxicity was assessed using the MTT assay, and (E) the level of gene expression was determined using Western blot analysis. NS, nonspecific.
Effects of treatment with BVZ and MIT on the growth of and gene expression in human pancreatic cancer cells. To further determine whether treatment with BVZ directly impacts gene expression in pancreatic cancer cells, we incubated PANC-1 and BxPC3 cells in a medium alone or a medium containing 100 μg/ml BVZ for 6 to 48 hours.

[1] = tested on: Sp1 recruitment into the Sp1 promoter; test: ChIP assay, tumors formed by PANC-1 cells in nude mice; type: in vivo; conditions: tumors from treated mice (BVZ, MIT, B+M)
Procedure: FIG. 15. Effects of treatment with BVZ and MIT on Sp1 recruitment into the Sp1 promoter in human pancreatic cancer cells in vitro and in vivo. A, schematic structures of the minimal Sp1 promoters. The nucleotide positions and sequences of Sp1-binding sites and polymerase chain reaction forward and reverse primers flanking those sites for ChIP assay are shown. B, Sp1 and VEGF promoter reporter constructs were transfected into PANC-1 cells in triplicate and incubated for 12 hours. The cells were then incubated for another 24 hours in a medium alone or a medium containing 100 μg/ml BVZ or 0.1 μM MIT. Total protein lysates were harvested from the cell cultures for measurement of Sp1 and VEGF promoter activity using a luciferase assay kit. The relative Sp1 and VEGF promoter activities were assessed, and the activity in treated groups was expressed as the fold change of that in their respective control groups. C and D, chromatin was extracted from (C) PANC-1 cells that were incubated in vitro for 2 days in a medium alone or a medium containing 100 μg/ml BVZ or 0.1 μM MIT and (D) tumors formed by PANC-1 cells in nude mice that received treatment as described in FIG. 2A. […]

## bevacizumab [BVZ]
BxPC3 cells
  cell growth in vitro: did not affect the growth
[1]
  Sp1 recruitment to its own promoter: significantly increase Sp1 recruitment to its own promoter
